# Where a SMILES comes first, the peptide text is derived from it. The star is where a group is joined. Octanoyl = CCCCCCCC(=O)*
# Tests used:
# Format in all cases: cell-based
# [1] = test system: E. coli ATCC strain 25922; experiment: Minimal Inhibitory Concentration, microtiter broth dilution; details: ATCC strain 25922
# Source text: (§1) Table I, which follows, indicates the Minimal Inhibitory Concentration (MIC) in […] of various peptides against S.aureus strain ATCC 25923(S), P. aeruginosa strain ATCC 27853(P), E. coli ATCC strain 25922(E), and C. 4albicans (CA). […] The peptides are unsubstituted at the N-terminal; substituted with an acetyl group at the N-terminal, as indicated by Ac-; substituted with an octanoyl group at the N-terminal, as indicated by Oct-; substituted with spinogosine, as indicated by Sph-; substituted with a succinyl group, as indicated by Suc-; substituted with a hexanoyl group, as indicated by Hex-; substituted with a heptanoyl group, as indicated by Hep-; substituted with a valeryl group, as indicated by Val-; substituted with a myristryl group, as indicated by Myr-; or substituted with an ibuprofyl group, as indicated by Ibu-;
# (§2) The procedure for the anti-bacterial assay is based upon the guidelines of the National Committee for Clinical Laboratory Standards, Document M7-T2, Volume 8, No. 8, 1988, which document is entirely incorporated herein by reference.
# (§3) Stock solutions of peptides, with and without the appropriate substitutions, were prepared at a concentration of 512 μg/ml in sterile deionized distilled water and stored at −70° C.
# (§4) The stock peptide solution was diluted in serial dilutions (1:2) down the wells of a microtiter plate so that the final concentrations of peptides in the wells were 0.25, 0.50, 1, 2, 4, 8, 16, 32, 64, 128 and 256 μg/ml. 1-5×10^5 CFUs/ml of either S. aureus ATCC 25923, E. coli ATCC 25922, P. aeruginosa ATCC 27853, or C. albicans, were added to the wells in full strength Mueller Hinton broth (BBL 11443) from a mid-log culture. The inoculum was standardized spectrophotometrically at 600 nm and was verified by colony counts. The plates were incubated for 16-20 hours at 37° C., and the minimal inhibitory concentration (MIC) for each peptide was determined. Minimal inhibitory concentration is defined as the lowest concentration of peptide which produces a clear well in the microtiter plate. The minimal inhibitory concentration of each of the peptides with and/or without the appropriate substitutions is given in Table I below.
# (§5) The in vitro anti-microbial activities of the methane sulfonate derivatives were determined according to the methods described in Examples 1 and 2. The activities against ATCC strains of S. aureus, E. coli, P. aeruginosa, and C. albicans, and the hemolysis of red blood cells were compared to the parent compound (Table IV). The activities for Compound 843 (Oct-SEQ ID NO:143) methane sulfonate against clinical strains of P. aeruginosa isolated from cystic fibrosis patients were compared to the parent compound (Table V). The activity for Compound 469 (Oct-SEQ ID NO:27) methane sulfonate against P. gingivalis was compared to the parent compound (Table VI).
# [2] = test system: C. albicans
# Source text: as §1, §2, §3, §4
# [3] = test system: P. aeruginosa strain ATCC 27853; details: ATCC 27853
# Source text: as §1, §2, §3, §4, §5
SMILES,Minimal Inhibitory Concentration E [1] [µg/mL],Minimal Inhibitory Concentration CA [2] [µg/mL],Minimal Inhibitory Concentration P [3] [µg/mL]
CCCCCCCC(=O)N[C@@H](CCCCN)C(=O)N[C@@H](CCCCN)C(=O)N[C@@H](CC(C)C)C(=O)N[C@@H](CC(C)C)C(=O)N[C@@H](CCCCN)C(=O)N[C@@H](CCCCN)C(=O)N[C@@H](CC(C)C)C(=O)N[C@@H](CCCCN)C(=O)N[C@@H](CCCCN)C(=O)N[C@@H](CC(C)C)C(N)=O [Oct-(SEQ ID NO: 109)-NH2] (Octanoyl-KKLLKKLKKL-NH2),16,32,4
CCCCCCCC(=O)N[C@@H](CC(C)C)C(=O)N[C@@H](CCCCN)C(=O)N[C@@H](CCCCN)C(=O)N[C@@H](CC(C)C)C(=O)N[C@@H](CC(C)C)C(=O)N[C@@H](CCCCN)C(=O)N[C@@H](CCCCN)C(=O)N[C@@H](CC(C)C)C(=O)N[C@@H](CCCCN)C(=O)N[C@@H](CCCCN)C(=O)N[C@@H](CC(C)C)C(N)=O [Oct-(SEQ ID NO: 110)-NH2] (Octanoyl-LKKLLKKLKKL-NH2),8,32,4
CCCCCCCC(=O)N[C@@H](C)C(=O)N[C@@H](CCCCN)C(=O)N[C@@H](CCCCN)C(=O)N[C@@H](CC(C)C)C(=O)N[C@@H](CC(C)C)C(=O)N[C@@H](CCCCN)C(=O)N[C@@H](CCCCN)C(=O)N[C@@H](CC(C)C)C(=O)N[C@@H](CCCCN)C(=O)N[C@@H](CCCCN)C(=O)N[C@@H](CC(C)C)C(N)=O [Oct-(SEQ ID NO: 111)-NH2] (Octanoyl-AKKLLKKLKKL-NH2),32,32,8
CCCCCCCC(=O)N[C@@H](CC(C)C)C(=O)N[C@@H](CC(C)C)C(=O)N[C@@H](CCCCN)C(=O)N[C@@H](CCCCN)C(=O)N[C@@H](CC(C)C)C(=O)N[C@@H](CCCCN)C(=O)N[C@@H](CCCCN)C(=O)N[C@@H](CC(C)C)C(=O)N[C@@H](CC(C)C)C(=O)N[C@@H](CCCCN)C(=O)N[C@@H](CCCCN)C(=O)N[C@@H](CC(C)C)C(N)=O [Oct-(SEQ ID NO: 113)-NH2] (Octanoyl-LLKKLKKLLKKL-NH2),8,128,8
CCCCCCCC(=O)N[C@@H](CCCCN)C(=O)N[C@@H](Cc1ccccc1)C(=O)N[C@@H](C)C(=O)N[C@@H](CCCCN)C(=O)N[C@@H](CCCCN)C(=O)N[C@@H](Cc1ccccc1)C(=O)N[C@@H](C)C(N)=O [Oct-(SEQ ID NO: 118)-NH2] (Octanoyl-KFAKKFA-NH2),>256,>256,>256
CCCCCCCC(=O)N[C@@H](CCCCN)C(=O)N[C@H](C(=O)N[C@@H](C)C(=O)N[C@@H](CCCCN)C(=O)N[C@@H](CCCCN)C(=O)N[C@H](C(=O)N[C@@H](C)C(N)=O)[C@@H](C)CC)[C@@H](C)CC [Oct-(SEQ ID NO: 119)-NH2] (Octanoyl-KIAKKIA-NH2),>256,>256,>256
CCCCCCCC(=O)N[C@@H](CCCNC(=N)N)C(=O)N[C@@H](Cc1ccccc1)C(=O)N[C@@H](C)C(=O)N[C@@H](CCCNC(=N)N)C(=O)N[C@@H](CCCNC(=N)N)C(=O)N[C@@H](Cc1ccccc1)C(=O)N[C@@H](C)C(N)=O [Oct-(SEQ ID NO: 120)-NH2] (Octanoyl-RFARRFA-NH2),256,64,128
CCCCCCCC(=O)N[C@@H](CCCCN)C(=O)N[C@@H](Cc1ccccc1)C(=O)N[C@@H](C)C(=O)N[C@@H](CCCCN)C(=O)N[C@@H](Cc1ccccc1)C(=O)N[C@@H](C)C(=O)N[C@@H](CCCCN)C(=O)N[C@@H](CCCCN)C(=O)N[C@@H](Cc1ccccc1)C(=O)N[C@@H](C)C(N)=O [Oct-(SEQ ID NO: 121)-NH2] (Octanoyl-KFAKFAKKFA-NH2),256,256,256
CCCCCCCC(=O)N[C@@H](CCCCN)C(=O)N[C@@H](CCCCN)C(=O)N[C@@H](Cc1ccccc1)C(=O)N[C@@H](C)C(=O)N[C@@H](CCCCN)C(=O)N[C@@H](Cc1ccccc1)C(=O)N[C@@H](C)C(=O)N[C@@H](CCCCN)C(=O)N[C@@H](CCCCN)C(=O)N[C@@H](Cc1ccccc1)C(=O)N[C@@H](C)C(N)=O [Oct-(SEQ ID NO: 122)-NH2] (Octanoyl-KKFAKFAKKFA-NH2),64,64,32
CCCCCCCC(=O)N[C@@H](CCCCN)C(=O)N[C@@H](Cc1ccccc1)C(=O)N[C@@H](C)C(=O)N[C@@H](CCCCN)C(=O)N[C@@H](CCCCN)C(=O)N[C@@H](Cc1ccccc1)C(=O)N[C@@H](C)C(=O)N[C@@H](CCCCN)C(=O)N[C@@H](Cc1ccccc1)C(=O)N[C@@H](C)C(=O)N[C@@H](CCCCN)C(=O)N[C@@H](CCCCN)C(=O)N[C@@H](Cc1ccccc1)C(=O)N[C@@H](C)C(N)=O [Oct-(SEQ ID NO: 125)-NH2] (Octanoyl-KFAKKFAKFAKKFA-NH2),16,64,8
CCCCCCCC(=O)N[C@@H](CCCNC(=N)N)C(=O)N[C@@H](Cc1ccccc1)C(=O)N[C@@H](C)C(=O)N[C@@H](CCCNC(=N)N)C(=O)N[C@@H](CCCNC(=N)N)C(=O)N[C@@H](Cc1ccccc1)C(=O)N[C@@H](C)C(=O)N[C@@H](CCCNC(=N)N)C(=O)N[C@@H](Cc1ccccc1)C(=O)N[C@@H](C)C(=O)N[C@@H](CCCNC(=N)N)C(=O)N[C@@H](CCCNC(=N)N)C(=O)N[C@@H](Cc1ccccc1)C(=O)N[C@@H](C)C(N)=O [Oct-(SEQ ID NO: 126)-NH2] (Octanoyl-RFARRFARFARRFA-NH2),8,64,8
CCCCCCCC(=O)N[C@@H](CCC(=O)O)C(=O)N[C@@H](CCCCN)C(=O)N[C@@H](CCCCN)C(=O)N[C@@H](CC(C)C)C(=O)N[C@@H](CC(C)C)C(=O)N[C@@H](CCCCN)C(=O)N[C@@H](CCCCN)C(=O)N[C@@H](CC(C)C)C(=O)N[C@@H](CCCCN)C(=O)N[C@@H](CCCCN)C(=O)N[C@@H](CC(C)C)C(N)=O [Oct-(SEQ ID NO: 127)-NH2] (Octanoyl-EKKLLKKLKKL-NH2),32,128,32
CCCCCCCC(=O)N[C@@H](CCCCN)C(=O)N[C@@H](CCCCN)C(=O)N[C@@H](CCCCN)C(=O)N[C@@H](CC(C)C)C(=O)N[C@@H](CC(C)C)C(=O)N[C@@H](CCCCN)C(=O)N[C@@H](CCCCN)C(=O)N[C@@H](CC(C)C)C(=O)N[C@@H](CCCCN)C(=O)N[C@@H](CCCCN)C(=O)N[C@@H](CC(C)C)C(N)=O [Oct-(SEQ ID NO: 128)-NH2] (Octanoyl-KKKLLKKLKKL-NH2),32,32,64
CCCCCCCC(=O)N[C@@H](CCCCN)C(=O)N[C@@H](CC(C)C)C(=O)N[C@@H](CCCCN)C(=O)N[C@@H](CCCCN)C(=O)N[C@@H](CCCCN)C(=O)N[C@@H](Cc1ccccc1)C(=O)N[C@@H](CC(C)C)C(=O)N[C@@H](CCCCN)C(=O)N[C@@H](CCCCN)C(=O)N[C@@H](CC(C)C)C(N)=O [Oct-(SEQ ID NO: 129)-NH2] (Octanoyl-KLKKKFLKKL-NH2),32,128,16
CCCCCCCC(=O)N[C@@H](CC(C)C)C(=O)N[C@@H](CCCCN)C(=O)N[C@@H](CCCCN)C(=O)N[C@@H](CC(C)C)C(=O)N[C@@H](CC(C)C)C(=O)N[C@@H](CCC(=O)O)C(=O)N[C@@H](CCCCN)C(=O)N[C@@H](CC(C)C)C(=O)N[C@@H](CCCCN)C(=O)N[C@@H](CCCCN)C(=O)N[C@@H](CC(C)C)C(N)=O [Oct-(SEQ ID NO: 130)-NH2] (Octanoyl-LKKLLEKLKKL-NH2),4,8,4
